Experimental data published in patent US20240165132A1, “METHODS AND MATERIALS FOR TREATING CANCER” (Mayo Foundation for Medical Education and Research, priority 2021, published 2024).

Tested on: GBM39, 76, 10 and 123
Experiment: BCL-2-family inhibitors in radiated vs non-radiated GBM lines
Assay type: cell-based, human
Conditions: GBM39, 76, 10, 123; 4 days drug starting 21 days after radiation
Method: Dose response curves shown for control non-radiated (black) and 15 Gy radiated (grey) cells. Cells were exposed to drug for 4 days, starting 21 days after radiation. […] For all groups, luminescence values are normalized individually to 0 nM control. Data shown are means±SEM of three technical replicates at each concentration. Data shown are representative of multiple confirmatory experiments.
Human glioblastoma cells were exposed to 10, 15 or 20 Gy radiation as indicated above. All GBM lines tested (Table 2) yielded a subpopulation of surviving non-proliferative cells used for subsequent experiments, with the exception of GM43 which yielded insufficient surviving cells for senescence experiments. All senolytic drugs used in this study were dissolved in DMSO (Table 1). Control (0 nM) cells were treated with the same dose of DMSO as cells with the highest drug concentration. Unless specified otherwise, cells were maintained in drug-containing media for four days prior to evaluation of cell viability using ATP lite, CellTiter-Glo assay according to company protocol (Cat #G7570). For all experiments, luminescence values are normalized to the 0 nM control for that cell line and radiation dose. All dose response graphs are depicted standard error of the mean (SEM) of 3 technical replicates at each concentration. Representative data are shown for experiments performed in independent replicates.
Among the 13 human GBM cell lines evaluated, meaningful analysis was possible in all with the exception of GBM43, for which insufficient cells survived radiation to permit testing. While the IC50 of Bcl-XL inhibition with and without radiation varied markedly between lines, radiated GBM was reproducibly more susceptible to Bcl-XL inhibition than non-radiated GBM.

## Cc1c(-c2ccc(N3CCc4cccc(C(=O)Nc5nc6ccccc6s5)c4C3)nc2C(=O)O)cnn1CC12CC3CC(CC(C3)C1)C2 [A1331852]
  Sensitivity of 15 Gy-radiated vs non-radiated cells: higher sensitivity than non-radiated cells
